From PubChem BioAssay (NCI)
Values joined by “and” are separate entries in the source; they are usually repeats but may differ in a detail not shown here. Equal entries are not always repeated.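 Following 48 hours of exposure in 96-well plates, responses at five concentrations were used to interpolate endpoints linearly. GI50: concentration for 50% inhibition of growth. TGI: total growth inhibition.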

Key:
Assay in all cases: NCI anticancer screen, dose series, 48 h
[1] = system: MCF7 breast
[2] = system: HT29 colon
[3] = system: OVCAR-8 ovarian
[4] = system: PC-3 prostate
[5] = system: M14 melanoma
[6] = system: SF-295 CNS
[7] = system: NCI-H460 lung
[8] = system: T-47D breast
[9] = system: K-562 leukemia
[10] = system: HS 578T breast

Row | SMILES | GI50 [1] [nM] | TGI [1] [µM] | GI50 [2] [µM] | TGI [2] | GI50 [3] [µM] | TGI [3] | GI50 [4] [nM] | TGI [4] [µM] | GI50 [5] [nM] | TGI [5] | GI50 [6] [nM] | TGI [6] | GI50 [7] [nM] | TGI [7] | GI50 [8] [µM] | TGI [8] [µM] | GI50 [9] [nM] | TGI [9] | GI50 [10] [nM] | TGI [10] [µM]
1 | O=C(Nc1cccc(-n2cc(-c3ccncc3)c(-c3cc(O)cc(Cl)c3)n2)c1)c1ccc(N2CCOCC2)c(C(F)(F)F)c1 | 4160 | > 100 | 3.03 | 11.3 µM | 1.64 | > 100 µM | 1090 | 45.6 | 774 | 2.74 µM | 614 | 2.78 µM | 797 | 3.48 µM | 3.81 | > 100 | 564 | 4.88 µM | 2940 | > 100
2 | C[C@]12CC[C@H]3[C@@H](CCC4=CC(=O)CC[C@@]43C)[C@@H]1CC[C@@H]2c1csc(N)n1 | 3420 | 15.5 | 4.41 | 18.3 µM | 3.42 | 26.7 µM | 2880 | 47.1 | 5160 | 21.4 µM | 1270 | 4.2 µM | 3460 | 13.8 µM | 2.26 | 18.8 | 2330 | > 100 µM | 8840 | 35.8
3 | COC1N(C2CC(O)C(CO)O2)C(=O)NC(=O)C1(F)Br (stereo not given) |  | > 100 | 14.9 | 50 µM and > 100 µM | 22.5 | 50 µM and > 100 µM |  | > 100 | 38400 | 50 µM and > 100 µM | 21900 | 50 µM and > 100 µM | 1510 | 50 µM and > 100 µM |  | > 100 |  | 50 µM and > 100 µM |  | > 95.5
4 | COc1ccc2c(N)ncc(C#Cc3cc(C(=O)Nc4ccc(CN5CCN(C)CC5)c(C(F)(F)F)c4)cnc3C)c2c1 | 745 | 2.63 | 0.194 | 0.876 µM | 0.861 | 2.71 µM | 924 | 3.56 | 225 | 0.934 µM | 4780 | 16.7 µM | 476 | 1.03 µM | 13.5 | 25.4 | 8.68 | 1.02 µM | 847 | 4.2
5 | O=C(/C=C/C12c3ccccc3C(c3ccccc31)C1C(=O)NC(=O)C12)c1ccccn1 (stereo not given) | 562 | 2.43 | 1.86 | 4.56 µM | 1.8 | 5.54 µM | 1670 | 4.46 | 1830 | 4.12 µM | 1610 | 3.49 µM | 1080 | 4.11 µM | 1.73 | 5.26 | 1370 | 18.1 µM | 3200 | 23
6 | CCNc1nc(O)c(/C=C2\C=Nc3ncccc32)s1 | 2550 | > 100 | 4.44 | > 100 µM | 3.27 | > 100 µM | 4040 | > 100 | 4450 | 26.9 µM | 3450 | > 100 µM | 3930 | 17.8 µM | 2.02 | 7.62 | 10000 | > 100 µM | 2950 | 8.29
7 | Nc1ncnc2c1N=C(c1ccc3c(c1)OCO3)CC(c1ccc(Cl)cc1)N2 (stereo not given) | 3610 | 45.5 | 17.2 | > 100 µM | 4.66 | 25.1 µM | 9060 | 22.1 | 25500 | > 100 µM | 14700 | > 100 µM | 21800 | > 100 µM | 20.9 | > 100 | 4270 | > 100 µM | 1070 | 7.09
8 | OC1(c2ccc(Cl)c(C(F)(F)F)c2)CCN(CCCC(c2ccc(F)cc2)c2ccc(F)cc2)CC1 | 796 | 1.47 | 0.739 | 1.47 µM | 0.823 | 1.53 µM | 857 | 2.1 | 828 | 1.52 µM | 833 | 1.63 µM | 1230 | 9.05 µM | 0.941 | 1.84 | 781 | 1.75 µM | 857 | 1.93
9 | CCN(CC)Cc1cc(Nc2nc(NC3CCC(N(C)C)CC3)c3ccccc3n2)ccc1OC (stereo not given) | 3830 | 14.6 | 2.42 | 7.11 µM | 3.08 | 13.2 µM | 6970 | 24.3 | 1910 | 3.57 µM | 2330 | 7.01 µM | 5180 | 17.6 µM | 5.4 | 18.9 | 1980 | 5.23 µM | 677 | 14.5
10 | COc1ccc(OC)c(NCC(=O)n2nc(/C=C\c3ccc(O)c(OC)c3)cc2/C=C\c2ccc(O)c(OC)c2)c1 | 1610 | 10.4 | 1.73 | 3.81 µM | 3.02 | 11.9 µM | 2520 | > 100 | 2020 | 6.18 µM | 2440 | 6.08 µM | 2590 | 9.84 µM | 3.05 | 14.6 | 729 | > 100 µM | 2310 | 19.2
11 | Cn1c([N+](=O)[O-])cnc1C=C1C(=O)c2ccccc2C1=O | 3440 | 16.2 | 7.29 | 25.3 µM | 2.18 | 6.54 µM | 8890 | 28.5 | 3830 | 16.6 µM | 21200 | 77.7 µM | 7100 | 22 µM | 11.4 | 44.6 | 3340 | 16.3 µM | 2430 | 8.71
